# From patent publication US6737383B1, “Herbicidal oxadiazolidines” (priority 1999, dated 2004)
# Assays:
# rice = test: Test B flood test rice; type: in vivo, Oryza sativa
# Outline: (§1)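 Flood test on plants grown to the 2-leaf stage; treated plants kept in greenhouse twelve to sixteen days, then visually rated against controls on a 0 (no effect) to 10 (complete control) scale.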
# wild oat = test: Test B pre/postemergence wild oat; type: in vivo, Avena fatua; settings: for Plant response rating, Wild oats: scale of 0 to 10 where 0 is no effect and 10 is complete control
# Outline: (§2)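 Test chemicals in a non-phytotoxic solvent mixture with surfactant were sprayed preemergence onto planted seeds and postemergence onto plants 2 to 18 cm tall (1- to 4-leaf stage). After twelve to sixteen days in a greenhouse, injury was visually rated against untreated controls from 0 (no effect) to 10 (complete control).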
# sugar beet = test: Test B pre/postemergence sugar beet; type: in vivo, Beta vulgaris; settings: for Plant response rating, Sugarbeets: scale of 0 to 10 where 0 is no effect and 10 is complete control
# Outline: as §2
# corn = test: Test B pre/postemergence corn; type: in vivo, Zea mays
# Outline: as §2
# rape = test: Test B pre/postemergence rape; type: in vivo, Brassica napus; settings: for Plant response rating, Rape: scale of 0 to 10 where 0 is no effect and 10 is complete control
# Outline: as §2
# pigweed = test: Test B pre/postemergence pigweed; type: in vivo, Amaranthus retroflexus; settings: for Plant response rating, Redroot pigweed: scale of 0 to 10 where 0 is no effect and 10 is complete control
# Outline: as §2
# morningglory = test: Test B pre/postemergence morningglory; type: in vivo, Ipomoea hederacea; settings: for Plant response rating, Morningglory: scale of 0 to 10 where 0 is no effect and 10 is complete control
# Outline: as §2
# soybean = test: Test B pre/postemergence soybean; type: in vivo, Glycine max; settings: for Plant response rating, Soybean: scale of 0 to 10 where 0 is no effect and 10 is complete control
# Outline: as §2
# duck salad = test: Test B flood test duck salad; type: in vivo, Heteranthera limosa
# Outline: as §1
# bamyardgrass = test: Test B flood test barnyardgrass; type: in vivo, Echinochloa crus-galli
# Outline: as §1
# crabgrass = test: Test B pre/postemergence crabgrass; type: in vivo, Digitaria sanguinalis
# Outline: as §2
# cocklebur = test: Test B pre/postemergence cocklebur; type: in vivo, Xanthium strumarium
# Outline: as §2
# velvetleaf = test: Test B pre/postemergence velvetleaf; type: in vivo, Abutilon theophrasti; settings: for Plant response rating, Velvetleaf: scale of 0 to 10 where 0 is no effect and 10 is complete control
# Outline: as §2
# giant foxtail = test: Test B pre/postemergence giant foxtail; type: in vivo, Setaria faberii
# Outline: as §2
# wheat = test: Test B pre/postemergence wheat; type: in vivo, Triticum aestivum; settings: for Plant response rating, Wheat: scale of 0 to 10 where 0 is no effect and 10 is complete control
# Outline: as §2
# purple nutsedge = test: Test B pre/postemergence purple nutsedge; type: in vivo, Cyperus rotundus; settings: for Plant response rating, Nutsedge: scale of 0 to 10 where 0 is no effect and 10 is complete control
# Outline: as §2
# [1] = Rate 62 g/ha, flood test species, Pre-emergence, visual evaluation after twelve to sixteen days
# [2] = Rate 125 g/ha, under heading Pre-emergence, flood test species, visual evaluation after twelve to sixteen days
# [3] = Rate 250 g/ha, Pre-emergence (flood test species), scale 0 to 10, 0 is no effect, 10 is complete control
# [4] = Rate 500 g/ha, Pre-emergence, flood test species, scale 0 to 10 (0 no effect, 10 complete control)
# [5] = Postemergence, Rate 250 g/ha, scale 0 to 10
# [6] = Preemergence, Rate 250 g/ha, scale 0 to 10, 0 is no effect, 10 is complete control
# [7] = Preemergence, Rate 500 g/ha, scale 0 to 10, 0 is no effect, 10 is complete control
# [8] = Rate 62 g/ha, Postemergence, scale 0 to 10, 0 no effect, 10 complete control
# [9] = Rate 125 g/ha, Postemergence, scale 0 to 10, 0 is no effect, 10 is complete control
# [10] = Postemergence, Rate 500 g/ha, scale of 0 to 10 where 0 is no effect and 10 is complete control
# [11] = Preemergence, Rate 62 g/ha, scale of 0 to 10 where 0 is no effect and 10 is complete control
# [12] = Preemergence, Rate 125 g/ha, scale of 0 to 10 where 0 is no effect and 10 is complete control
smiles,measurement,setting,value
CC(C)N(C(=O)n1oc(=O)n(C(C)CCl)c1=O)c1ccc(Cl)cc1 (stereo not shown) [Compound 456],"Plant response rating, Rice (0 to 10 scale, 0 is no effect, 10 is complete control)",rice; [1],0
same,"Rice plant response rating (0 to 10 scale, 0 is no effect, 10 is complete control)",rice; [2],0
same,Rice plant response rating,rice; [3],0
same,Rice plant response rating,rice; [4],0
same,Wild oats plant response rating,wild oat; [5],0
same,"Plant response rating, Wild oats","wild oat; Preemergence, Rate 62 g/ha",0
same,"Plant response rating, Wild oats","wild oat; Preemergence, Rate 125 g/ha",0
same,Wild oats plant response rating,wild oat; [6],2
same,Wild oats plant response rating,wild oat; [7],3
same,Wild oats plant response rating,wild oat; [8],0
same,Wild oats plant response rating,wild oat; [9],0
same,Sugarbeets plant response rating,sugar beet; [5],0
same,"Plant response rating, Sugarbeets","sugar beet; Preemergence, Rate 62 g/ha",0
same,"Plant response rating, Sugarbeets","sugar beet; Preemergence, Rate 125 g/ha",2
same,Sugarbeets plant response rating,sugar beet; [6],2
same,Sugarbeets plant response rating,sugar beet; [7],3
same,Sugarbeets plant response rating,sugar beet; [8],0
same,Sugarbeets plant response rating,sugar beet; [9],0
same,Corn plant response rating,corn; [5],0
same,Corn plant response rating,corn; [10],0
same,"Plant response rating, Corn",corn; [11],0
same,"Plant response rating, Corn",corn; [12],0
same,Corn plant response rating,corn; [6],0
same,Corn plant response rating,corn; [7],0
same,Corn plant response rating,corn; [8],0
same,Corn plant response rating,corn; [9],0
same,Rape plant response rating,rape; [5],0
same,"Plant response rating, Rape","rape; Preemergence, Rate 62 g/ha",0
same,"Plant response rating, Rape","rape; Preemergence, Rate 125 g/ha",0
same,Rape plant response rating,rape; [6],0
same,Rape plant response rating,rape; [7],0
same,Rape plant response rating,rape; [8],0
same,Rape plant response rating,rape; [9],0
same,Redroot pigweed plant response rating,pigweed; [5],3
same,"Plant response rating, Redroot pigweed","pigweed; Preemergence, Rate 62 g/ha",0
same,"Plant response rating, Redroot pigweed","pigweed; Preemergence, Rate 125 g/ha",2
same,Redroot pigweed plant response rating,pigweed; [6],3
same,Redroot pigweed plant response rating,pigweed; [7],5
same,Redroot pigweed plant response rating,pigweed; [8],0
same,Redroot pigweed plant response rating,pigweed; [9],0
same,Morningglory plant response rating,morningglory; [5],5
same,"Plant response rating, Morningglory","morningglory; Preemergence, Rate 62 g/ha",0
same,"Plant response rating, Morningglory","morningglory; Preemergence, Rate 125 g/ha",0
same,Morningglory plant response rating,morningglory; [6],3
same,Morningglory plant response rating,morningglory; [7],3
same,Morningglory plant response rating,morningglory; [8],3
same,Morningglory plant response rating,morningglory; [9],3
same,Soybean plant response rating,soybean; [5],2
same,"Plant response rating, Soybean","soybean; Preemergence, Rate 62 g/ha",0
same,"Plant response rating, Soybean","soybean; Preemergence, Rate 125 g/ha",0
same,Soybean plant response rating,soybean; [6],0
same,Soybean plant response rating,soybean; [7],0
same,Soybean plant response rating,soybean; [8],1
same,Soybean plant response rating,soybean; [9],3
same,"Plant response rating, Ducksalad (0 to 10 scale, 0 is no effect, 10 is complete control)",duck salad; [1],0
same,"Ducksalad plant response rating (0 to 10 scale, 0 is no effect, 10 is complete control)",duck salad; [2],0
same,Ducksalad plant response rating,duck salad; [3],0
same,Ducksalad plant response rating,duck salad; [4],0
same,"Plant response rating, Barnyardgrass (0 to 10 scale, 0 is no effect, 10 is complete control)",bamyardgrass; [1],0
same,"Barnyardgrass plant response rating (0 to 10 scale, 0 is no effect, 10 is complete control)",bamyardgrass; [2],0
same,Barnyardgrass plant response rating,bamyardgrass; [3],0
same,Barnyardgrass plant response rating,bamyardgrass; [4],0
same,Crabgrass plant response rating,crabgrass; [5],4
same,Crabgrass plant response rating,crabgrass; [10],7
same,"Plant response rating, Crabgrass",crabgrass; [11],6
same,"Plant response rating, Crabgrass",crabgrass; [12],6
same,Crabgrass plant response rating,crabgrass; [6],8
same,Crabgrass plant response rating,crabgrass; [7],9
same,Crabgrass plant response rating,crabgrass; [8],4
same,Cocklebur plant response rating,cocklebur; [5],0
same,Cocklebur plant response rating,cocklebur; [10],2
same,"Plant response rating, Cocklebur",cocklebur; [11],0
same,"Plant response rating, Cocklebur",cocklebur; [12],0
same,Cocklebur plant response rating,cocklebur; [6],0
same,Cocklebur plant response rating,cocklebur; [7],0
same,Cocklebur plant response rating,cocklebur; [8],0
same,Cocklebur plant response rating,cocklebur; [9],0
same,Velvetleaf plant response rating,velvetleaf; [5],0
same,"Plant response rating, Velvetleaf","velvetleaf; Preemergence, Rate 62 g/ha",0
same,"Plant response rating, Velvetleaf","velvetleaf; Preemergence, Rate 125 g/ha",0
same,Velvetleaf plant response rating,velvetleaf; [6],1
same,Velvetleaf plant response rating,velvetleaf; [7],2
same,Velvetleaf plant response rating,velvetleaf; [8],0
same,Velvetleaf plant response rating,velvetleaf; [9],0
same,Giant foxtail plant response rating,giant foxtail; [5],3
same,Giant foxtail plant response rating,giant foxtail; [10],8
same,"Plant response rating, Giant foxtail",giant foxtail; [11],5
same,"Plant response rating, Giant foxtail",giant foxtail; [12],10
same,Giant foxtail plant response rating,giant foxtail; [6],10
same,Giant foxtail plant response rating,giant foxtail; [7],10
same,Giant foxtail plant response rating,giant foxtail; [8],2
same,Giant foxtail plant response rating,giant foxtail; [9],2
same,Wheat plant response rating,wheat; [5],0
same,"Plant response rating, Wheat","wheat; Preemergence, Rate 62 g/ha",0
same,"Plant response rating, Wheat","wheat; Preemergence, Rate 125 g/ha",0
same,Wheat plant response rating,wheat; [6],0
same,Wheat plant response rating,wheat; [7],0
same,Wheat plant response rating,wheat; [8],0
same,Wheat plant response rating,wheat; [9],0
same,Nutsedge plant response rating,purple nutsedge; [5],0
same,"Plant response rating, Nutsedge","purple nutsedge; Preemergence, Rate 62 g/ha",0
same,"Plant response rating, Nutsedge","purple nutsedge; Preemergence, Rate 125 g/ha",0
same,Nutsedge plant response rating,purple nutsedge; [6],0
same,Nutsedge plant response rating,purple nutsedge; [7],0
same,Nutsedge plant response rating,purple nutsedge; [8],0
same,Nutsedge plant response rating,purple nutsedge; [9],0
